According to patent US9687558B2, “Antitumoral bioconjugates of hyaluronic acid or its derivatives obtained by indirect chemical conjugation, and their use in the pharmaceutical field” (priority 2005, dated 2017):

Tests used:
[1] = Mathijssen R H et al., Clin Cancer Res, 2001; cited from earlier work
[2] = tested on: colic adenocarcinoma HT29 cells; experiment: Cytotoxicity test in vitro on HT29 cells, MTT colorimetric assay; format: cell-based; conditions: 48 hours of contact, HA derivatives in 5% glucosated solution, SN38 in DMSO
Protocol: Evaluation of the Antiproliferative Activity of the Ester Conjugate HA/SN38 having a Substitution Degree Equal to 10% and 15%, on the Cellular Line of Colic Adenocarcinoma HT29
Aliquots of the derivatives obtained from examples 1 and 2 are characterized by means of a cytotoxicity test in vitro on a line of colic tumoral cells called HT29. The comparison was effected with SN38 dissolved in DMSO. The HA derivatives are solubilized in a glucosated solution at 5% at a concentration of 5 mg/ml. The test is effected by depositing on a plate with 96 cavities, 3000 cells per cavity; after 24 hours of incubation at 37° C., the cells are put in contact with the solutions and after a further 48 hours the cell vitality is determined by means of a MTT colorimetric assay (Dezinot F. et al., J. Immunol Methods, 1986, 22(89):271-277).
The proliferation curves referring to the two ester conjugates of HA are shown in the graphs (on the left the cytotoxic activity of the derivative at 15%, on the right that at 10%), see FIG. 4.
By comparing the data of EC50 with SN38 in dimethylsulfoxide (DMSO) the following results are obtained: […]

[3] = tested on: DHD/K12 cells (MDR colon-rectum adenocarcinoma model); experiment: Cytotoxicity test in DHD/K12 cells, LIVE/DEAD Cell Vitality Assay; format: cell-based, rat; conditions: 0.25 μM, 48 hours of treatment
Protocol: The cellular line used derives from rats of the BDIX strain treated with 1,2-dimethylhydrazine.
In order to evaluate the degree of cellular vitality the LIVE/DEAD Cell Vitality Assay (Molecular Probes) was used, which allows metabolically active cells to be distinguished from dead cells: the latter emit green fluorescence at a nuclear level whereas live cells emit red fluorescence localized on the cellular membrane and in the cytoplasm. After colouring, the cells were analyzed using a confocal microscope and the percentage of live/dead cells was evaluated by counting a minimum of 500 live or dead cells per sample.

SMILES | antitumoral activity relative to commercial prodrug (Irinotecan) [1] [times] | EC50 [2] [nM] | cytotoxic effect at low concentration [3]
CCc1c2c(nc3ccc(O)cc13)-c1cc3c(c(=O)n1C2)COC(=O)[C@]3(O)CC [SN38 in DMSO, SN38] | 100 to 1000 | 5 | –
COc1cccc2c1C(=O)c1c(O)c3c(c(O)c1C2=O)C[C@@](O)(C(=O)CO)C[C@@H]3O[C@H]1C[C@H](N)[C@H](O)[C@H](C)O1 [doxorubicin] | – | – | does not have any cytotoxic effect
